Data from patent US20240425475A1, “COMPOUND BASED ON QUINAZOLINE-SUBSTITUTED GLUTARIMIDE SKELETON AND USE THEREOF” (GLUETACS THERAPEUTICS (SHANGHAI) CO., LTD., priority 2022, published 2024).

Experiments:
[1] = system: Human B-lymphoma cell: Ramos; assay: Half inhibitory concentration (IC50) against tumor cells, CCK-8 cell viability; type: cell-based; details: 96 h treatment
Description: (§1) The tumor cells used herein were cultured in a cell culture medium listed in table 2 at 37° C. in an incubator with 5% CO2. Prior to experimentation, all cells used were correctly identified by STR profiling, and tested negative for mycoplasma through routine screenings. [table] Determination of Half Inhibitory Concentration (IC50) of the Compounds Against Tumor Cells: IC50 values of the compounds of the present disclosure (including the compounds in Table 1, and compounds of examples 1-104) were measured using the Meilun Cell Counting Kit-8 kit from Dalian Meilun Biotech Co., Ltd. Assay details are as follows: tumor cells were seeded in a 96-well plate at a density listed in Table 3. After 24 h, 100 μL of the inoculated cells were treated with 0.5 μl of the compounds of the present disclosure (including the compounds in Table 1, and compounds of examples 1-104) at 10 different successively decreasing concentrations (starting at the highest concentration of […]; 5-fold serial dilutions). After the cells were treated with the compounds of the present disclosure for a period of time, cell viability was measured according to the instructions provided with the CCK-8 kit. DMSO served as the negative control, and corresponding commercial immunomodulatory drug Avadomide (CC-122) was used as the positive control, both of which treated the cells using the same protocol as that of the compounds of the present disclosure. The growth inhibition of the compounds of the present disclosure on cells was plotted by Prism Graphpad software, and the IC50 values of the compounds of the present disclosure were calculated therefrom. [table] We tested the activities of the compounds of the present invention (including the compounds in Table 1 and Examples 1-104 compounds) in tumor cells through a dose-dependent manner. The cells were treated with the compounds of the present invention at 10 different successively decreasing concentrations (starting at the highest concentration of 10 μM; 5-fold serial dilutions) for 72 h or 96 h, and then the cell viability determination was performed in accordance with CCK-8 reagent operating instructions.

[2] = system: Human Burkitt's lymphoma cell line: Daudi; assay: as above; type: cell-based; details: 96 h treatment
Description: as §1

[3] = system: Human cell line: Kasumi-1; assay: as above; type: cell-based; details: Kasumi-1 cells, 72 h treatment
Description: as §1

[4] = system: Human colon cancer cell: SW620; assay: as above; type: cell-based; details: SW-620, 96 h treatment
Description: as §1

[5] = system: Human dexamethasone-resistant multiple myeloma cell line: MM.1R; assay: as above; type: cell-based; details: MM.1R cells, 72 h treatment
Description: as §1

[6] = system: Human diffuse large B-cell lymphoma cell line: TMD8; assay: as above; type: cell-based; details: 96 h treatment
Description: as §1

[7] = system: Human multiple myeloma cells: MM.1S; assay: as above; type: cell-based; details: MM1.S, MM.1S cells, 72 h treatment
Description: as §1

[8] = target: human Cereblon WT GST-tagged protein (Homo sapiens (Human), UniProt Q96SW2); assay: CRBN-binding affinity, CEREBLON BINDING kit (HTRF); details: HTRF inhibitory activity, binding to CRBN
human Cereblon WT GST-tagged protein, sequence (Q96SW2 whole entry): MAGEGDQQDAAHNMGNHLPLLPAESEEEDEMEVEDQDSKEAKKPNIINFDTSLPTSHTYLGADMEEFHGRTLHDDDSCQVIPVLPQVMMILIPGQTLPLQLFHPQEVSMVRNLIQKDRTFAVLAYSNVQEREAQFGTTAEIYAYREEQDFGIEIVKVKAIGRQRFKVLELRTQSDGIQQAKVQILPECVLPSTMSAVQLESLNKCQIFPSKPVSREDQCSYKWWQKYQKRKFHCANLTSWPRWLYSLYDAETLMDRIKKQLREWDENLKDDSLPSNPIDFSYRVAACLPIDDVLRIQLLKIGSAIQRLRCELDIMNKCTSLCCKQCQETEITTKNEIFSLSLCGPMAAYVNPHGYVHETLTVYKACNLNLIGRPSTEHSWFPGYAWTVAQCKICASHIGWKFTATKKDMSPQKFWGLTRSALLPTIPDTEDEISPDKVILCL
Description: Determination of CRBN-Binding Affinity of Compounds
The CEREBLON BINDING kits (specification: 10,000 tests; product number: Catalog #64BDCRBNPEH; CISBIO company) was used to determine the CRBN binding ability of the compounds to be tested through a HTRF method (homogeneous time-resolved fluorescence). The specific methods are as follows: • 1. According to the instructions of the CEREBLON BINDING kits, the compounds to be tested of the present invention and lenalidomide were serially diluted using diluent #9 (1×) solution to obtain a final concentration of 2 μM for both the tested compounds and lenalidomide solution. • 2.2.5 μL of the above 2 μM of the tested compounds and lenalidomide solution, as well as the same volume of diluent #9 (1×) solution (solvent control group, Std0) were taken and added to each well of a 96-well plate, respectively. Then, 2.5 μL of (human Cereblon WT GST-tagged protein) solution was added to each well. Finally, 5 μL of the uniformly mixed thalidomide-Red reagent and GST Eu antibody working solution were added to each of the above wells. The final concentration of the tested compounds and lenalidomide in each well is 0.5 μM. • 3. The blank control wells were sequentially added with 2.5 μL of diluent #9 (1×) solution, 2.5 μL of PROTAC binding buffer, and 5 μL of uniformly mixed thalidomide-Red reagent and GST Eu antibody working solution. • 4. After sealing and incubating the solutions in the above wells at room temperature for 3 hours, the absorbance values at emission wavelengths of 620 nm and 665 nm were detected by the HTRF method using a Spark microplate reader (V3.1 SP1).
The corresponding CRBN binding inhibition rate was calculated using the following method: […]
Note: OD 665 nmcompound is the absorbance value of each well of the compounds to be tested of the present disclosure at an emission wavelength of 665 nm.
OD 620 nmcompound is the absorbance value of each well of the compounds to be tested of the present disclosure at an emission wavelength of 620 nm.
OD 665 nmcontrol is the absorbance value of the blank control well at an emission wavelength of 665 nm.
OD 620 nmcontrol is the absorbance value of the blank control well at an emission wavelength of 620 nm.
OD 665 nmstd0 is the absorbance value of the solvent control well at an emission wavelength of 665 nm.
OD 620 nmstd0 is the absorbance value of the solvent control well at an emission wavelength of 620 nm.

| SMILES | IC50 [1] | IC50 [2] | IC50 [3] | IC50 [4] | IC50 [5] | IC50 [6] | IC50 [7] | IC50 [8] |
| --- | --- | --- | --- | --- | --- | --- | --- | --- |
| Cc1nc2cccc(N)c2c(=O)n1C1CCC(=O)NC1=O (stereo not shown) [CC-122, Avadomide, reference compound] | 1330 nM | 1650 nM | > 10000 nM | > 10000 nM | 464 nM | 890 nM | 46.9 nM |  |
| Cc1nc2cccc(NCCCCCCNC34CC5CC(CC(C5)C3)C4)c2c(=O)n1C1CCC(=O)NC1=O (stereo not shown) [GT-02235, 3-(5-((6-(((3s,5s,7s)-adamantan-1-yl)amino)hexyl)amino)-2-methyl-4-oxoquinazolin-3(4H)-yl)piperidine-2,6-dione] |  |  |  |  |  | 146 nM | 39.5 nM |  |
| Cc1nc2cccc(NCCCCCCCNC34CC5CC(CC(C5)C3)C4)c2c(=O)n1C1CCC(=O)NC1=O (stereo not shown) [GT-02237, 3-(5-((7-(((1s,3s)-adamantan-1-yl)amino)heptyl)amino)-2-methyl-4-oxoquinazolin-3(4H)-yl)piperidine-2,6-dione] |  |  |  |  |  | 8.2 nM | 3.3 nM | 950 nM |
| Cc1nc2cccc(NCCCCCCCNC34CC5CC(CC3C5)C4)c2c(=O)n1C1CCC(=O)NC1=O (stereo not shown) [GT-02495, 3-(5-((7-(((3as,6as)-hexahydro-2,5-methanopentalen-3a(1H)-yl)amino)heptyl)amino)-2-methyl-4-oxoquinazolin-3(4H)-yl)piperidine-2,6-dione] |  |  |  |  | 9.8 nM | 21.4 nM |  | 320 nM |
| Cc1nc2cccc(NCCCCCCCO)c2c(=O)n1C1CCC(=O)NC1=O (stereo not shown) [GT-02598, 3-(5-((7-hydroxyheptyl)amino)-2-methyl-4-oxoquinazolin-3(4H)-yl)piperidine-2,6-dione] |  |  |  |  |  |  | 17.2 nM | 3660 nM |
| Cc1nc2cccc(NCCCCCCCN[C@@]34CC5CC(C)(C[C@@](C)(C5)C3)C4)c2c(=O)n1C1CCC(=O)NC1=O (stereo partly drawn) [GT-02767, 3-(5-((7-(((1SR,3RS,5SR,7r)-3,5-dimethyladamantan-1-yl)amino)heptyl)amino)-2-methyl-4-oxoquinazolin-3(4H)-yl)piperidine-2,6-dione] |  |  |  |  |  | 309 nM | 69.9 nM | 1050 nM |
| Cc1nc2cccc(NCCCCCCCNC(C)C34CC5CC(CC(C5)C3)C4)c2c(=O)n1C1CCC(=O)NC1=O (stereo not shown) [GT-02768, 3-(5-((7-((1-((3r,5r,7r)-adamantan-1-yl)ethyl)amino)heptyl)amino)-2-methyl-4-oxoquinazolin-3(4H)-yl)piperidine-2,6-dione] |  |  |  |  |  | 294 nM | 98.1 nM | 680 nM |
| Cc1nc2cccc(SCCCN3CCN(CC45CC6CC(CC(C6)C4)C5)CC3)c2c(=O)n1C1CCC(=O)NC1=O (stereo not shown) [GT-03235, 3-(5-((3-(4-(((1s,3s)-adamantan-1-yl)methyl)piperazin-1-yl)propyl)thio)-2-methyl-4-oxoquinazolin-3(4H)-yl)piperidine-2,6-dione] | 398 nM |  |  |  |  |  |  | 2400 nM |

Further lines, results first:

| IC50 [1] | IC50 [2] | IC50 [3] | IC50 [4] | IC50 [5] | IC50 [6] | IC50 [7] | IC50 [8] | SMILES |
| --- | --- | --- | --- | --- | --- | --- | --- | --- |
| 165 nM | 155 nM | 104 nM | 35.8 nM | 32.8 nM | 186 nM | 79.6 nM | 1720 nM | Cc1nc2cccc(NCCN3CCN(CCC45CC6CC(CC(C6)C4)C5)CC3)c2c(=O)n1C1CCC(=O)NC1=O (stereo not shown) [GT-03301, 3-(5-((2-(4-(2-((3r,5r,7r)-adamantan-1-yl)ethyl)piperazin-1-yl)ethyl)amino)-2-methyl-4-oxoquinazolin-3(4H)-yl)piperidine-2,6-dione] |
|  |  |  | 717 nM |  |  |  | 1200 nM | Cc1nc2cccc(SCCN3CCN(CCC45CC6CC(CC(C6)C4)C5)CC3)c2c(=O)n1C1CCC(=O)NC1=O (stereo not shown) [GT-03305, 3-(5-((2-(4-(2-((3r,5r,7r)-adamantan-1-yl)ethyl)piperazin-1-yl)ethyl)thio)-2-methyl-4-oxoquinazolin-3(4H)-yl)piperidine-2,6-dione] |
| 89.3 nM | 44.9 nM | 22.3 nM | 18.6 nM | 12.7 nM | 86.5 nM | 29.3 nM | 1570 nM | Cc1nc2cccc(SCCCN3CCN(CCC45CC6CC(CC(C6)C4)C5)CC3)c2c(=O)n1C1CCC(=O)NC1=O (stereo not shown) [GT-03306, 3-(5-((3-(4-(2-((3r,5r,7r)-adamantan-1-yl)ethyl)piperazin-1-yl)propyl)thio)-2-methyl-4-oxoquinazolin-3(4H)-yl)piperidine-2,6-dione] |
|  |  |  | 709 nM |  |  |  |  | Cc1nc2cccc(SCCN3CCN(c4ccc(C#N)cc4F)CC3)c2c(=O)n1C1CCC(=O)NC1=O (stereo not shown) [GT-03314, 4-(4-(2-((3-(2,6-dioxopiperidin-3-yl)-2-methyl-4-oxo-3,4-dihydroquinazolin-5-yl)thio)ethyl)piperazin-1-yl)-3-fluorobenzonitrile] |
| 490 nM | 286 nM |  |  | 276 nM | 204 nM |  |  | Cc1nc2cccc(SCCCN3CCN(C(c4ccc(F)cc4)c4ccc(F)cc4)CC3)c2c(=O)n1C1CCC(=O)NC1=O (stereo not shown) [GT-03387, 3-(5-((3-(4-(bis(4-fluorophenyl)methyl)piperazin-1-yl)propyl)thio)-2-methyl-4-oxoquinazolin-3(4H)-yl)piperidine-2,6-dione] |
|  |  |  |  | 352 nM |  |  |  | Cc1cc2cccc(NCCN3CCN(C(c4ccc(F)cc4)c4ccc(F)cc4)CC3)c2c(=O)n1C1CCC(=O)NC1=O (stereo not shown) [GT-03388, 3-(8-((2-(4-(bis(4-fluorophenyl)methyl)piperazin-1-yl)ethyl)amino)-3-methyl-1-oxoisoquinolin-2(1H)-yl)piperidine-2,6-dione] |
| 652 nM | 546 nM | 694 nM |  | 204 nM |  |  |  | Cc1nc2cccc(SCCCN3CCN(C(c4ccc(Cl)cc4)c4ccc(Cl)cc4)CC3)c2c(=O)n1C1CCC(=O)NC1=O (stereo not shown) [GT-03697, 3-(5-((3-(4-(bis(4-chlorophenyl)methyl)piperazin-1-yl)propyl)thio)-2-methyl-4-oxoquinazolin-3(4H)-yl)piperidine-2,6-dione] |
|  |  |  | 387 nM |  | 413 nM |  |  | Cc1nc2cccc(N3CC(C)N(CCC45CC6CC(CC(C6)C4)C5)C(C)C3)c2c(=O)n1C1CCC(=O)NC1=O (stereo not shown) [GT-04246, 3-(5-(4-(2-((3r,5r,7r)-adamantan-1-yl)ethyl)-3,5-dimethylpiperazin-1-yl)-2-methyl-4-oxoquinazolin-3(4H)-yl)piperidine-2,6-dione] |
